Assay results from ChEMBL document CHEMBL1201862, “PubChem BioAssay data set” (2004).
Calls of active or inactive are those of the source. Rule as the data show it, for most assays here: actives have a measured EC50 and inactives only a lower limit.

Assays:
[1] = NIH-3T3 fibroblast cytotoxicity, dose response, cytotoxicity control, cell-based, fluorescence, Alamar Blue, secondary assay (AID 2327); format: functional;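 also: NIH-3T3 mouse fibroblasts cultured with fluconazole at 8 µg/mL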
[2] = system: Streptococcus sp. 'group A'; experiment: growth inhibition of control SK(-) GAS strain, dose response, counter-screen for streptokinase expression inhibitor project, luminescence, kanamycin, BacTiterGlo, confirmation (AID 1900); format: functional, organism-based
BJ [3] = experiment: cytotoxicity toward BJ-TERT fibroblasts, dose response, cell-based, RAS-independent, luminescence (AID 1933); format: functional; conditions: Homo sapiens
Streptokinase A = target: T1, Streptokinase A (Streptococcus pyogenes serotype M1, UniProt P10520); experiment: S. pyogenes streptokinase expression inhibitors, potency, dose response, plasminogen activation absorbance, OD405 (AID 1914); format: functional, Streptococcus pyogenes M1 GAS;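 also: secreted streptokinase activity via plasminogen activation per viability signal from cell pellet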
T1 sequence (P10520 whole entry): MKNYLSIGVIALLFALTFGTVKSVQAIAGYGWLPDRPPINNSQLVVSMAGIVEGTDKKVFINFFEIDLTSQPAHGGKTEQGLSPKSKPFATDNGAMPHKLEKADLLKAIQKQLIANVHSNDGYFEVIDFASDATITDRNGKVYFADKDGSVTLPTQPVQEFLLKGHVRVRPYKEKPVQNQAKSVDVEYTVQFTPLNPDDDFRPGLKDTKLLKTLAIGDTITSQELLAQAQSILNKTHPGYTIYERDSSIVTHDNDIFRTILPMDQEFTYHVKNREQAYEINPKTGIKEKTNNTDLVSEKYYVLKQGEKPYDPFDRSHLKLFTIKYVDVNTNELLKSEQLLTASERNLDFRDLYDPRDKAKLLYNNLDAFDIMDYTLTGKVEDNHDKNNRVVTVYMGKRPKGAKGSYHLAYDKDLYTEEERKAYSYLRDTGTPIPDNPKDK

BJ [4] = experiment: cells; format: functional, cell-based; conditions: Homo sapiens
[5] = C. albicans growth with fluconazole, confirmation, fluorescence, retest (AID 2467); format: functional, cell-based
NS3 = NS3 (Hepatitis C virus, UniProt A3EZJ3); experiment: PubChem AID 2173; set-up: species or system Hepacivirus hominis
[6] = inhibitors of intracellular T. cruzi replication, confirmation, NIH3T3 host cells, beta-gal luminescence (AID 2044); format: functional, cell-based;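 also: intracellular parasites grown in NIH/3T3 mouse fibroblasts as host cells; luminescent beta-galactosidase reporter signal from transgenic T. cruzi replicating inside host cells; inhibitors lower the luminescence signal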
[7] = target: T2, Serine/threonine-protein phosphatase (Candida dubliniensis (strain CD36 / CBS 7987 / NCPF 3949 / NRRLY-17841) (Yeast), UniProt B9W6M3); experiment: calcineurin pathway inhibitors in yeast reporter, dose response, S. cerevisiae, CDRE-lacZ, luminescence, secondary (AID 2388); format: functional, cell-based;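 also: yeast reporter cells carrying a calcineurin-responsive lacZ construct stimulated with calcium chloride; luminescent beta-galactosidase reporter signal in whole cells rather than isolated phosphatase activity; potency for inhibition where a drop in reporter signal means calcineurin blockade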
T2 sequence (B9W6M3 whole entry): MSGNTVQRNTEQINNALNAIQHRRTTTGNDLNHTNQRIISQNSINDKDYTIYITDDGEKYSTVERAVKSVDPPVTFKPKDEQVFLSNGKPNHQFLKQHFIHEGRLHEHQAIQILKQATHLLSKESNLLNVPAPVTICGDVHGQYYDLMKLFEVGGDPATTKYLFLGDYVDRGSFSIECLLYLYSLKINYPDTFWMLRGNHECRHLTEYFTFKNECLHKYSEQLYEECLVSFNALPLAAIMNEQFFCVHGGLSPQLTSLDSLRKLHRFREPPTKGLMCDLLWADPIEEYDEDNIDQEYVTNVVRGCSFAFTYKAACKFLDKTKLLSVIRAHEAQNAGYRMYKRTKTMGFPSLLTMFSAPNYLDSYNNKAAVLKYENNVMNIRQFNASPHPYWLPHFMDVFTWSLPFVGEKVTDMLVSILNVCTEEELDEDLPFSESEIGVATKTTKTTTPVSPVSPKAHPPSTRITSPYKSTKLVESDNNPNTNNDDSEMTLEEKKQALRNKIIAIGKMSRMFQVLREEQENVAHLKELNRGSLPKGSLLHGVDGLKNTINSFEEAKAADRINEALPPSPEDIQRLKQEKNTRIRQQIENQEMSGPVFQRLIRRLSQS

[8] = cytotoxicity toward NIH3T3 fibroblasts, dose response, counter-screen, cell-based, ATP luminescence, mouse fibroblasts (AID 2010); format: functional;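 also: cells exposed to compound for about 90 hours before reading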
BJ [9] = experiment: cytotoxicity toward BJ-TERT-LT-ST fibroblasts, dose response, cell-based, RAS-independent, luminescence (AID 1935); format: functional; conditions: Homo sapiens;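 also: BJ fibroblasts immortalized with TERT plus LT and ST oncogenes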
[10] = cytotoxicity toward DRD oncogenic fibroblasts, dose response, cell-based, non-viral oncogenic, luminescence (AID 1934); format: functional; conditions: Homo sapiens
Streptococcus = experiment: Group A Streptococcus viability loss, dose response, counter-screen for streptokinase expression inhibitor project, luminescence, BacTiterGlo (AID 1915); format: functional, organism-based;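 also: potency for reduction of bacterial viability or growth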
[11] = target: T3, Heat shock factor protein 1 (Mus musculus, UniProt P38532); experiment: HSF1 potentiators in luciferase reporter cells, confirmation, cell-based, NIH3T3, luminescence, dose retest (AID 435004); format: functional;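 also: stress induced by proteasome inhibitor MG132 added 30 min after compound; luciferase reporter driven by HSF1 response element in NIH3T3 cells; actives raise luminescence as potentiators of the MG132 stress response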
T3 sequence (P38532 whole entry): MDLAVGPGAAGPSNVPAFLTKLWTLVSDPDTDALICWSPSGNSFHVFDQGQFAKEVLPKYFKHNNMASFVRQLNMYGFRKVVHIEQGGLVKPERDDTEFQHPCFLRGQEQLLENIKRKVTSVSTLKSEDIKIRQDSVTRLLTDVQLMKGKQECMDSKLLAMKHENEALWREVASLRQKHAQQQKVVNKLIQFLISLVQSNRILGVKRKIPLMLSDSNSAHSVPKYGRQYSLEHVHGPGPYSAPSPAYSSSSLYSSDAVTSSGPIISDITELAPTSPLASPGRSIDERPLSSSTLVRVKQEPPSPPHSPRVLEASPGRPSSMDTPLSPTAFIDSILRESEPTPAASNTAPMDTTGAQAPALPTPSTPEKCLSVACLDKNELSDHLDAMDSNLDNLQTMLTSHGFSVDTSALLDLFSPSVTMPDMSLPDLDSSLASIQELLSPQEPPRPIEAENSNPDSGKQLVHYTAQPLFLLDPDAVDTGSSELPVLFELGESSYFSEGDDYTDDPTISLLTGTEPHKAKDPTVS

[12] = target: Heat shock protein HSP 90-alpha (Homo sapiens, UniProt P07900); format: functional, organism-based
[13] = target: T2, Serine/threonine-protein phosphatase; experiment: Fluorescence Cell-Based Secondary Assay to Identify Inhibitors of Calcineurin. [Related pubchem assays (depositor defined):AID1979, AID2007]; format: functional
[14] = target: ATP-dependent molecular chaperone HSP82 (Candida albicans (strain WO-1) (Yeast), UniProt C4YTQ8); experiment: loss of DOC-induced GRE-beta-galactosidase reporter signal, dose response, Hsp90 inhibitor project, S. cerevisiae, luminescence (AID 2400); format: functional, cell-based;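 also: beta-galactosidase luminescence from glucocorticoid response element reporter as proxy for Hsp90 function; inhibitor potency where signal loss means Hsp90 inhibition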
Estrogen receptor = target: T4, Estrogen receptor (Homo sapiens, UniProt P03372);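 also: potency for inhibiting coactivator peptide recruitment to the receptor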
T4 sequence (P03372 whole entry): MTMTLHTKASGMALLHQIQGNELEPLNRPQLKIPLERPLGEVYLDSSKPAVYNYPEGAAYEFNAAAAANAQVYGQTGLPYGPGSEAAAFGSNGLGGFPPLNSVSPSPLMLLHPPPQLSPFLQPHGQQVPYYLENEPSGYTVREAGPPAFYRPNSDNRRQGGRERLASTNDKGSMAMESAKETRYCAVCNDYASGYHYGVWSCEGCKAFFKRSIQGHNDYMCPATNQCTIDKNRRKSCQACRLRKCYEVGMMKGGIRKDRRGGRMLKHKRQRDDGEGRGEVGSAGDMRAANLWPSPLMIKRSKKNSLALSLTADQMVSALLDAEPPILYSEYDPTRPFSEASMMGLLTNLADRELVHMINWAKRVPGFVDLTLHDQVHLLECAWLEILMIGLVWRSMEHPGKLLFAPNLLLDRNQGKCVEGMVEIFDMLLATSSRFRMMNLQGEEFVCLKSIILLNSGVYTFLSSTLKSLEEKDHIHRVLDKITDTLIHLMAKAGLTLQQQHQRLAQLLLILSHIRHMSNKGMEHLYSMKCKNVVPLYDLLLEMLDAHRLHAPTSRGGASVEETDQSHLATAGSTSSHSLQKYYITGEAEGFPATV

Trypsin = Trypsin (Sus scrofa, UniProt P00761); experiment: porcine trypsin inhibitors, dose response, selectivity assay for Rce1 protease inhibitor project, biochemical, quenched peptide fluorescence, cherry-pick (AID 488789)
CAAX prenyl protease 1 = CAAX prenyl protease 1 (Saccharomyces cerevisiae S288c, UniProt P47154); experiment: Ste24 protease inhibitors, dose response, biochemical, S. cerevisiae, plate reader, cherry-pick (AID 488815)
CAAX prenyl protease 1, sequence (P47154 whole entry): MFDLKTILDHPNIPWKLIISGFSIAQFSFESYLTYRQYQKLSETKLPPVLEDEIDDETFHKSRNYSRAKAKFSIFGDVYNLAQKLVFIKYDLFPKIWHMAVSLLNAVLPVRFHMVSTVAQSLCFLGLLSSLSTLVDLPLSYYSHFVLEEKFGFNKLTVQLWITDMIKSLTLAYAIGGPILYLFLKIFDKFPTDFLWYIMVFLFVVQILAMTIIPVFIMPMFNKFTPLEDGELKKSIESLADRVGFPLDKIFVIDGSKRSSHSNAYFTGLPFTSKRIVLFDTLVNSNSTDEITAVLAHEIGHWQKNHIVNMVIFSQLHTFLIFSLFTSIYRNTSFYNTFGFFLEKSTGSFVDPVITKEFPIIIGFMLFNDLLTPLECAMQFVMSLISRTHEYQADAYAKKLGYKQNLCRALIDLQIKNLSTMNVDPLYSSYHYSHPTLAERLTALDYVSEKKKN

ATP-dependent molecular chaperone HSP82, sequence (C4YTQ8 whole entry): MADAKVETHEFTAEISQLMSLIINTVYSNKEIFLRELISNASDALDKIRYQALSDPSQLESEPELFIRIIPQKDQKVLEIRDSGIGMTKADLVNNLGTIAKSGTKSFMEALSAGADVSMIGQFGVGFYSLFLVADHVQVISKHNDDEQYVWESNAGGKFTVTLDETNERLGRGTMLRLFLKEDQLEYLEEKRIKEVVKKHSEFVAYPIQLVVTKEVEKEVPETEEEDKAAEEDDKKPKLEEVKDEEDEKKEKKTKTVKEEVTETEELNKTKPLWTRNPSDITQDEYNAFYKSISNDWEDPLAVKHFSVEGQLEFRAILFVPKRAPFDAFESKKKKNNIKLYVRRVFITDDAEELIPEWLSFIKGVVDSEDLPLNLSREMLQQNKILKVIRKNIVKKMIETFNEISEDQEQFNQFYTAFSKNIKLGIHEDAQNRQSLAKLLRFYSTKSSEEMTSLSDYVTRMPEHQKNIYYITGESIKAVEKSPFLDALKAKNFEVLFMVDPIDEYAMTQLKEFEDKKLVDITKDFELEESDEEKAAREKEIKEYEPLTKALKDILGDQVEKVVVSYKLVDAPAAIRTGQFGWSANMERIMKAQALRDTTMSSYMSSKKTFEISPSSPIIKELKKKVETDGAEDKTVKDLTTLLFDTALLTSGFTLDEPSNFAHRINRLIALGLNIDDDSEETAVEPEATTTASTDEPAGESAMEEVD
NS3, sequence (A3EZJ3 whole entry): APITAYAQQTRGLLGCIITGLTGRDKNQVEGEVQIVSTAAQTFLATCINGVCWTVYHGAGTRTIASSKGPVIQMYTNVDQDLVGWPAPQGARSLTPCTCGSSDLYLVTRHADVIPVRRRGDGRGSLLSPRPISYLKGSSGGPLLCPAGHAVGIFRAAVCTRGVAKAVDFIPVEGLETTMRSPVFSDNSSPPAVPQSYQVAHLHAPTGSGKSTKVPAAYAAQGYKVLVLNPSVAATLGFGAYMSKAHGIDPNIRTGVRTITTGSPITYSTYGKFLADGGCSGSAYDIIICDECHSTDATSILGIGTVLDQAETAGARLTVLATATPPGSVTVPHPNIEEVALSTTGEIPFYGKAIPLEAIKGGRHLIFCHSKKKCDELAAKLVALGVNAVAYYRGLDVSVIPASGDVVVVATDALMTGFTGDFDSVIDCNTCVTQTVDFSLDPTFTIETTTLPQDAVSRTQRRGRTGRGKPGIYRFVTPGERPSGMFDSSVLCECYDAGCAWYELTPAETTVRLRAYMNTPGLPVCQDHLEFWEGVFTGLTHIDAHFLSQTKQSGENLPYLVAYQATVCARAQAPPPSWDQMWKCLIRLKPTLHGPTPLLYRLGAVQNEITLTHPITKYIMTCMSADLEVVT
Trypsin, sequence (P00761 whole entry): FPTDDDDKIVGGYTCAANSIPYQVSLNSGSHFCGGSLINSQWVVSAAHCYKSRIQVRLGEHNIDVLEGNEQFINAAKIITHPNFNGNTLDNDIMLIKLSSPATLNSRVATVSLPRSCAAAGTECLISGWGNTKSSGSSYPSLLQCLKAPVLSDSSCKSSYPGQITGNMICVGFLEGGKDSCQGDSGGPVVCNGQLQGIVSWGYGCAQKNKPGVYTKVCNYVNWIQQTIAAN

Compound	EC50 [1]	EC50 [2]	EC50 (BJ [3])	EC50 (Streptokinase A)	EC50 (BJ [4])	EC50 [5]	IC50 (NS3)	EC50 [6]	EC50 [7]	EC50 [8]	EC50 (BJ [9])	EC50 [10]	EC50 (Streptococcus)	EC50 [11]	AC50 [12]	EC50 [13]	EC50 [14]	IC50 (Estrogen receptor)	AC50 (Trypsin)	AC50 (CAAX prenyl protease 1)
Cc1ccc(/C=C/C(=O)c2ccccc(=O)c2O)cc1C	> 160 µM (inconclusive)	5.05 µM (active)	23.7 µM (active)	> 150 µM (not active)	24.9 µM (active)	0.851 µM (active)	2.63 µM (active)	1.83 µM (active)	5.55 µM (active)	17.5 µM (active)	> 150 µM (not active)	77.7 µM (active)	11.5 µM (active)	40 µM (active)	4.22 µM (active)	12.9 µM (active)	2.09 µM (active)	–	–	–
O=C(CSc1n[nH]c(-c2ccc(S(=O)(=O)N3CCCCC3)cc2)n1)Nc1nccs1	–	–	–	–	–	–	–	–	–	–	–	–	–	–	–	–	–	47.2 µM (not active)	21.3 µM (active)	8.82 µM (active)
